Measurements: patent US11925654B2, “Esters of 2-deoxy-monosaccharides with anti proliferative activity” (Board of Regents, The University of Texas System, priority 2013, dated 2024)

How the values were obtained:
U87 = assay: MTS cytotoxicity assay, 72 hours drug exposure, U87 brain tumor cells; type: cell-based; conditions: Homo sapiens, U-87 MG, final DMSO 0.5%
Method: (§1) In the first set of assays, IC50 values were determined for each compound after 72 hours of drug exposure in each of the tumor cell lines. Cell lines tested include D54, U87, Panc-1, AsPc-1, Colo357-FG, L3.6, H226, H352, H441 cell lines.
U87 is a human primary glioblastoma cell line formally known as U-87 MG. It has epithelial morphology, and was obtained from a patient with stage four cancer. U-87 MG can be obtained from the American Type Culture Collection (ATCC) where it is known by the accession number HTB-14. The entire sequence of the genome of U-87 MG has recently been published in PLoS Genetics, 2010 January; 6(1): e1000832. This is a hypodiploid human cell line with the modal chromosome number of 44 occurring in 48% of cells. The rate of higher ploidy was 5.9%. Twelve markers were common to all cells, including der(1)t(1;3) (p22;q21), der(16)t(1;16) (p22;p12), del(9) (p13) and nine others. The marker der(1) had two copies in most cells. There was only one copy of normal X. N1, N6 and N9 were not found.
(§2) All cell lines were maintained in respective growth media at 37° C., 5% CO2 and 98% humidity. Cells were treated with the compounds and all drug concentrations were diluted so that the final concentration of DMSO is 0.5%. The cytotoxic effect was measured by the MTS Assay (Tetrazolium), which is a colorimetric method for determining the number of viable cells. After the 72 hours of incubation with drug, Promega's MTS reagent were added to the cells according to manufacturer's instructions and incubated for 2 hours. The plates were read at 490 nm and the resulting data graphed with GraphPad Prism 5 software.
(§3) IC50 was calculated, which is approximate equivalent of IG50 (concentration at which 50% growth inhibition is measured). The IC50 values represent […] of the drug concentration.

Colo357-FG = assay: MTS cytotoxicity assay, 72 hours drug exposure, Colo357-FG pancreatic cancer cells; type: cell-based; conditions: Homo sapiens, COLO 357/FG, final DMSO 0.5%
Method: as §1
COLO 357 FG is continuous human cell line, COLO 357, with exceptional characteristics was derived from a metastasis of a pancreatic adenocarcinoma. COLO 357 grew as an adhering monolayer with a cell doubling time of 21 h and grew with 10% clonal efficiency in soft agar. COLO 357 cells had numerous lamellar inclusions. The cells elaborated the pancreatic enzymes trypsin, elastase and chymotrypsin. COLO 357 also secreted appreciable amounts of carcinoembryonic antigen and human chorionic gonadotropin. […] Nine nucleolar organizing regions were found by silver-stained metaphase preparations. COLO 357 has been “fingerprinted” for seven allelic isozymes.
as §2, §3

CCCC(=O)OCC1OC(O)CC(OC(=O)CCC)C1O (centres unmarked) [WP1213]
IC50 (U87): 240 µM
IC50 (Colo357-FG): 380 µM

CCCC(=O)OC[C@H]1OC(O)C[C@@H](O)[C@@H]1OC(=O)CCC (stereo partly drawn) [WP1214, 4,6-Di-O-Butyryl-2-Deoxy-D-Glucopyranose]
IC50 (U87): 300 µM
IC50 (Colo357-FG): 440 µM

CCC(=O)OC1CC(O)C(O)C(CO)O1 (centres unmarked) [WP1216]
IC50 (U87): 3580 µM

CCCC(=O)OC[C@H]1OC(OC(=O)CCC)C[C@@H](O)[C@@H]1O (stereo partly drawn) [WP1217, 1,6-Di-O-Butyryl-2-Deoxy-D-Glucopyranose]
IC50 (U87): 2330 µM

CCC(=O)OCC1OC(O)CC(OC(=O)CC)C1O (centres unmarked) [WP1231]
IC50 (U87): 380 µM
IC50 (Colo357-FG): 550 µM

CCCCC(=O)OCC1OC(O)CC(OC(=O)CCCC)C1O (centres unmarked) [WP1232]
IC50 (U87): 250 µM
IC50 (Colo357-FG): 490 µM

CCCCC(=O)OC[C@H]1OC(O)C[C@@H](O)[C@@H]1OC(=O)CCCC (stereo partly drawn) [WP1233, 4,6-Di-O-Valeroyl-2-Deoxy-D-Glucopyranose]
IC50 (U87): 200 µM
IC50 (Colo357-FG): 230 µM

CCC(CC)C(=O)OCC1OC(O)CC(OC(=O)C(CC)CC)C1O (centres unmarked) [WP1234]
IC50 (U87): 55 µM
IC50 (Colo357-FG): 100 µM

CCC(CC)C(=O)OCC1OC(O)CC(O)C1OC(=O)C(CC)CC [WP1241, 4,6-Di-O-(2-Ethyl)Butyryl-2-Deoxy-α-D-Glucopyranose]
IC50 (U87): 123 µM
IC50 (Colo357-FG): 280 µM

CCC(=O)OCC1OC(O)CC(O)C1OC(=O)CC (centres unmarked) [WP1242]
IC50 (U87): 490 µM
IC50 (Colo357-FG): 6380 µM

CCC(CC)C(=O)OC1CC(OC(=O)C(CC)CC)C(O)C(CO)O1 [WP1261, 1,3-Di-O-(2-Ethyl)Butyryl-2-Deoxy-β-D-Glucopyranose]
IC50 (U87): 741 µM
IC50 (Colo357-FG): 340 µM

CC(C)CC(=O)OCC1OC(O)CC(OC(=O)CC(C)C)C1O (centres unmarked) [WP1263]
IC50 (U87): 37 µM
IC50 (Colo357-FG): 160 µM

CCC(CC)C(=O)OCC1OCCC(OC(=O)C(CC)CC)C1O (centres unmarked) [WP1317]
IC50 (U87): 2100 µM
IC50 (Colo357-FG): 2100 µM

CCC(CC)C(=O)OCC1OC(O)CC(O)C1O [WP1319, 6-O-(2-Ethyl)Butyric-2-Deoxy-D-Glucopyranose]
IC50 (U87): 3000 µM
IC50 (Colo357-FG): 1700 µM

CCC(CC)C(=O)OC1CC(O)OC(CO)C1O [WP1342, 3-O-(2-Ethyl)Butyryl-2-Deoxy-D-Glucopyranose]
IC50 (U87): 2400 µM
IC50 (Colo357-FG): 13200 µM

O=C(OCC1OC(O)CC(OC(=O)C2CCCC2)C1O)C1CCCC1 (centres unmarked) [WP1343]
IC50 (U87): 109 µM
IC50 (Colo357-FG): 750 µM

CCC(CC)C(=O)OCC1OCC(O)C(OC(=O)C(CC)CC)C1O (centres unmarked) [WP1357]
IC50 (Colo357-FG): 540 µM

CCC(CC)C(=O)OC1CC(O)C(O)C(CO)O1 [WP1474, 1-O-(2-Ethyl)Butyryl-2-Deoxy-β-D-Glucopyranose]
IC50 (U87): 2400 µM

CCCC(CCC)C(=O)O[C@H]1C[C@@H](O)[C@H](O)[C@@H](CO)O1 [WP1490, 1-O-Valproyl-2-Deoxy-β-D-Glucopyranose]
IC50 (U87): 2400 µM
IC50 (Colo357-FG): 2000 µM

CCCC(CCC)C(=O)OC[C@H]1OC(O)C[C@@H](O)[C@@H]1O (stereo partly drawn) [WP1491, 6-O-Valproyl-2-Deoxy-D-Glucopyranose]
IC50 (U87): 2100 µM

CCCC(CCC)C(=O)O[C@@H]1CC(O)O[C@H](CO)[C@H]1O (stereo partly drawn) [WP1512, 3-O-Valproyl-2-Deoxy-D-Glucopyranose]
IC50 (U87): 740 µM

CCCC(CCC)C(=O)O[C@H]1[C@H](O)CC(O)O[C@@H]1CO (stereo partly drawn) [WP1513, 4-O-Valproyl-2-Deoxy-D-Glucopyranose]
IC50 (U87): 1200 µM
IC50 (Colo357-FG): 1200 µM
